In patent US10377783B2, “Methods and compounds for enhancing contrast in magnetic resonance imaging (MRI)” (priority 2015, dated 2019):
Like-named read-outs stand apart in the source and are kept apart here.

Experiments:
[1] = system: primary rat renal proximal tubule epithelial cells (RPTECs); experiment: In vitro toxicity, MTT assay; type: cell-based; details: for cytotoxicity: 10 h time point, compared with 4 h; for IC50: rat RPTECs, MTT, read-out: Inhibitory concentration IC50
Method: Gadodiamide (Selleckchem, Lot #02) was used as the reference compound. It is one of the 8 Gd(III)-based MRI agents approved for use in Canada (trade name: Omniscan™).
The test articles and reference compound were weighed and dissolved in the incubation medium to give the highest test concentration of 30 mM. The solution was filter sterilized and diluted to the remaining test concentrations of 10 mM, 3.3 mM, 1.1 mM, 0.36 mM, 0.12 mM and 0.04 mM.
Cryopreserved primary rat renal proximal tubule epithelial cells (RPTECs) (ScienCell Research Laboratories, Carlsbad, Calif.) were used for the study. The rat RPTECs were thawed completely at 37° C., and transferred to epithelial cell medium (ScienCell Research Laboratories, Carlsbad, Calif.) followed by plating in poly-L-lysine coated 96-well plates. The RPTECs were allowed to recover and grow in a cell culture incubator (37° C., humidified atmosphere of 5% carbon dioxide and 95% air) for 3 additional days with a medium change every alternate day.
Following 3 days of plating, the RPTECs were washed once with serum free epithelial cell medium (ScienCell Research Laboratories, Carlsbad, Calif.) followed by treatment with the test, reference or control articles for 2, 4, 10 or 24 h. All treatments were performed in triplicate.
Cellular viability and metabolic activity were assessed by using the 3-(4,5-dimethylthiazol-2-yl)-2,5-diphenyl tetrazolium bromide (MTT) uptake assay. A 10× stock of the MTT dye was prepared in phosphate buffered saline (PBS). An aliquot of dye was added 2 hrs before the intended time point to achieve a final 1× concentration, after which incubation (37° C., humidified atmosphere of 5% carbon dioxide and 95% air) continued until the desired time point. For the 2 hr time point, the aliquot of dye was added immediately after the test articles. Following incubation, all media was aspirated from the wells and the plates were allowed to dry. The resulting formazan crystals were dissolved in DMSO using an orbital shaker, and the absorbance at 570 nm was measured using a Victor ^3V multilabel plate reader (reference wavelength=650 nm).
The inhibitory concentration (IC50, the concentration resulting in 50% toxicity) was determined by plotting log concentration vs. relative viability, followed by non-linear regression of the curve using Graph Pad Prism 5.0.
An in vitro toxicity study was performed in order to evaluate the cytotoxic potential of several of the agents in primary rat renal proximal tubule epithelial cells (RPTECs), prior to performing in vivo studies. The Mn^II and Gd^III complexes of L1, L2 and L6 (complexes 1, 2, 5, and 7-9) were evaluated at seven concentrations (30 mM, 10 mM, 3.3 mM, 1.1 mM, 0.36 mM, 0.12 mM and 0.04 mM) after 2, 4, 10 and 24 hours of treatment in rat RPTECs. The MTT assay was used as an indicator of viability. The nephrotoxic potential of the test articles was compared to the toxicity observed in the presence of the approved agent Gadodiamide. The results are summarized in Table 4, where the inhibitory concentration (IC50, the concentration resulting in 50% toxicity) was determined by plotting log concentration vs. relative viability.

[2] = Relaxivity measurements (T1 and T2 relaxation times, Bruker minispec mq60/mq20); type: physicochemical; details: aqueous solution, 37° C.
Method: T1 and T2 relaxation times were measured at the STTARR Innovation Centre in Toronto, Canada using a Bruker minispec mq60, and at the Bruker Showroom in Milton, Canada using a Bruker minispec mq20. Measurements were carried out on a series of 6 aqueous dilutions between 0-5 mM.
The T1 and T2 relaxation times of the 8 soluble, pure complexes were measured in aqueous solution at 37° C., at both 20 and 60 MHz.

[3] = system: male rat (Sprague Dawley Crl:SD); experiment: In vivo MRI imaging of 2 and 6, T2-weighted scans; details: for T2-weighted MRI signal intensity, liver: baseline (−10 min) 965; for T2-weighted MRI signal intensity, lean muscle: baseline (−10 min) 2673; for T2-weighted MRI signal intensity, renal cortex: baseline (−10 min) 4759; for T2-weighted MRI signal intensity, renal medulla: baseline (−10 min) 6454; for T2-weighted MRI signal intensity, bladder: baseline (−10 min) 12921; for T2-weighted MRI signal intensity, fat: baseline (−10 min) 14834
Method: Compound 1 (aq., 12.5 mM) was injected intravenously into 2 male rats (Sprague Dawley Crl:SD, 312-338 g) at a dosage of 0.02 mmol/kg following anaesthesia with 5% isoflurane. Compound 2 (aq., 6.25 mM) was injected intravenously into 1 male rat (Sprague Dawley Crl:SD, 349 g) at a dosage of 0.01 mmol/kg following anaesthesia with 5% isoflurane. Compound 6 (aq., 6.25 mM) was injected intravenously into 1 male rat (Sprague Dawley Crl:SD, 341 g) at a dosage of 0.01 mmol/kg following anaesthesia with 5% isoflurane. Anesthesia was maintained at 2-2.5% isoflurane through a nose cone for the duration of the scans. Fast-spin-echo images were collected for 45 mins. immediately post-injection. For compound 1, the DT1-weighted RARE (Rapid Acquisition Relaxation Enhancement) scans were acquired with an echo time of 10 ms, and a repetition time=respiratory cycle duration (˜1100 ms). Both T1- and T2-weighted scans were collected on compounds 2 and 6.
The in vivo contrast potential of compounds 1, 2 and 6 were studied via the collection of fast-spin-echo images for 30-45 minutes immediately following injection of an aqueous solution of each complex. The dosage chosen for 1 was 0.02 mmol/kg (c=[…]) while the dosage chosen for 2 and 6 was 0.01 mmol/kg (c=6.25 mM). Predominantly T1-weighted scans with some T2-weighting were performed on two rats injected with 1.
Both T1- and T2-weighted scans were performed on two rats injected with 2 and its dimeric analogue 6.

[4] = 8 min after injection of 2, 0.01 mmol/kg iv
[5] = 22 min after injection of 2, 0.01 mmol/kg iv
[6] = 37 min after injection of 2, 0.01 mmol/kg iv
[7] = injection of 2, 0.01 mmol/kg iv, first 40 min

## CC1=NCCNCCNCCN=C(C)c2cccc1n2.O.O.[Cl-].[Cl-].[Mn+2] [Compound 1, [MnL1Cl2].2H2O]
[1]; 2 and 4 h of treatment, 0.04-30 mM
  nephrotoxicity: did not show significant nephrotoxicity
[1]
  cytotoxicity: did not display significant cytotoxicity
[1]; 24 h of treatment
  nephrotoxic effects: exhibiting the least nephrotoxic effects
[1]; 24 hr treatment
  IC50: 5.47 mM
[2]; 20 MHz
  r1 relaxivity: 3.78 s⁻¹ mM⁻¹
[2]; 60 MHz
  r1 relaxivity: 2.76 s⁻¹ mM⁻¹

## CC1=NCCOCCOCCN=C(C)c2cccc1n2.O.O.[Cl-].[Cl-].[Mn+2] [Compound 2, [MnL2Cl2].2H2O]
[1]; 2 hr treatment
  IC50: 3.88 mM
[1]; 4 hr treatment
  IC50: 2.56 mM
[1]; 10 hr treatment
  IC50: 14.7 mM
[1]
  cytotoxicity: exhibited a slight reduction in toxicity
[1]; 24 hr treatment
  IC50: 0.68 mM
[3]; [4]
  T2-weighted MRI signal intensity, liver: 788 arbitrary units of voxel intensity
  T2-weighted MRI signal intensity, lean muscle: 2386 arbitrary units of voxel intensity
  T2-weighted MRI signal intensity, renal cortex: 3367 arbitrary units of voxel intensity
  T2-weighted MRI signal intensity, renal medulla: 5342 arbitrary units of voxel intensity
  T2-weighted MRI signal intensity, bladder: 7977 arbitrary units of voxel intensity
  T2-weighted MRI signal intensity, fat: 14550 arbitrary units of voxel intensity
[3]; [5]
  T2-weighted MRI signal intensity, liver: 577 arbitrary units of voxel intensity
  T2-weighted MRI signal intensity, lean muscle: 2451 arbitrary units of voxel intensity
  T2-weighted MRI signal intensity, renal cortex: 3307 arbitrary units of voxel intensity
  T2-weighted MRI signal intensity, renal medulla: 5306 arbitrary units of voxel intensity
  T2-weighted MRI signal intensity, bladder: 667 arbitrary units of voxel intensity
  T2-weighted MRI signal intensity, fat: 12923 arbitrary units of voxel intensity
[3]; [6]
  T2-weighted MRI signal intensity, liver: 400 arbitrary units of voxel intensity
  T2-weighted MRI signal intensity, lean muscle: 2377 arbitrary units of voxel intensity
  T2-weighted MRI signal intensity, renal cortex: 3034 arbitrary units of voxel intensity
  T2-weighted MRI signal intensity, renal medulla: 4215 arbitrary units of voxel intensity
  T2-weighted MRI signal intensity, bladder: 512 arbitrary units of voxel intensity
  T2-weighted MRI signal intensity, fat: 13440 arbitrary units of voxel intensity
[3]; [7]
  Max. intensity change, T2-weighted, bladder: −96%
  Max. intensity change, T2-weighted, fat: −13%
  Max. intensity change, T2-weighted, lean muscle: −11%
  Max. intensity change, T2-weighted, liver: −59%
  Max. intensity change, T2-weighted, renal cortex: −36%
  Max. intensity change, T2-weighted, renal medulla: −35%
[2]; 20 MHz
  r1 relaxivity: 3.58 s⁻¹ mM⁻¹
[2]; 60 MHz
  r1 relaxivity: 2.78 s⁻¹ mM⁻¹
